# Reference: ChEMBL document CHEMBL5465560, “Selectivity Literature for EUbOPEN Chemogenomic Library” (2024)
# Tests used:
# [1] = biological target: Ribosomal protein S6 kinase alpha-2 (Homo sapiens) (UniProt Q15349); experiment: Selectivity interaction (KinomeScan (DiscoverX)) EUB0000311b RPS6KA2; conditions: at 1 µM
# [2] = biological target: Substance-K receptor (Homo sapiens) (UniProt P21452); experiment: Selectivity interaction (Eurofins CEREP Diversity Profile (receptors and ion channels)) EUB0000279b TACR2; conditions: at 10 µM
# [3] = biological target: Serine/threonine-protein kinase 24 (Homo sapiens) (UniProt Q9Y6E0); experiment: Selectivity interaction (Kinase panel (KiNativ target engagement assay in Jurkat cells)) EUB0001635a STK24; type: cell-based; conditions: Selectivity number of off-targets 0.0, Selectivity number of targets 233.0, Source Knowledge https://www.sciencedirect.com/science/article/pii/S2451945619300674?via%3Dihub, at 1 µM
# [4] = biological target: T1, Lymphokine-activated killer T-cell-originated protein kinase (Homo sapiens) (UniProt Q96KB5); experiment: Selectivity interaction (Kinase panel (DSF assay)) EUB0001559a PBK
# T1 sequence (whole entry): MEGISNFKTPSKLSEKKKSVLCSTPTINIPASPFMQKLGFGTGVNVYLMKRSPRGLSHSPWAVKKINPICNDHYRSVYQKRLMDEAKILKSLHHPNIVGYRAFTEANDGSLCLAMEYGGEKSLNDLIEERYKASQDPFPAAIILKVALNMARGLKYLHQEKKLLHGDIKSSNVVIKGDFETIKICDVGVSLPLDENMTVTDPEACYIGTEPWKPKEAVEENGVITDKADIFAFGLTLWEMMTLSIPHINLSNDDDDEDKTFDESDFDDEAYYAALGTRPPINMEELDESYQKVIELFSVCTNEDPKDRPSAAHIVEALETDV
# [5] = biological target: Lethal(3)malignant brain tumor-like protein 1 (Homo sapiens) (UniProt Q9Y468); experiment: Selectivity interaction (Transferase panel (protein, RNA, and DNA methyltransferases. and EP300 (acetyltransferase))) EUB0000270b L3MBTL; conditions: at 1 µM
# [6] = biological target: T2, Histone-arginine methyltransferase CARM1 (Homo sapiens, UniProt Q86X55); experiment: Selectivity interaction (Western Blot (dimethylation of BAF155 (BAF155me2a/BAF155) in KMS-27 cells)) EUB0000255b CARM1; type: cell-based
# T2 sequence (Q86X55 whole entry): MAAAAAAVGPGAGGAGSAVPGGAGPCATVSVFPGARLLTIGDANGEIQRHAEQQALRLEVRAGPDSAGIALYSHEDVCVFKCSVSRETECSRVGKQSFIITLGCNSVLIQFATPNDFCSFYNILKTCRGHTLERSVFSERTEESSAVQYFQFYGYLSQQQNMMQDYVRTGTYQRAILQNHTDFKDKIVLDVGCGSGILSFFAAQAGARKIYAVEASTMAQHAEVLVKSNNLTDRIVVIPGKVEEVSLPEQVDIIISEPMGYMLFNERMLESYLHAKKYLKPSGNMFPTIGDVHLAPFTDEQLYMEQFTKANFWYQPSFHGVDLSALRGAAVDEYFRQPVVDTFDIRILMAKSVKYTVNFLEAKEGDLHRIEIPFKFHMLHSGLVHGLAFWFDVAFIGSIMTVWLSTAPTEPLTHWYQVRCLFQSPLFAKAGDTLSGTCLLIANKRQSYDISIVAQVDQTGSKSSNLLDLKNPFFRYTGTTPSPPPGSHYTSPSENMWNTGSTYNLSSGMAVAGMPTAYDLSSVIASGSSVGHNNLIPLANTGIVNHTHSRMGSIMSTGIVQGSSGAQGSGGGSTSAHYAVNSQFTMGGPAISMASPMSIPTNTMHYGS
# [7] = biological target: T3, Tyrosine-protein kinase ZAP-70 (Homo sapiens) (UniProt P43403); experiment: Selectivity interaction (KinomeScan (DiscoverX)) EUB0000045b ZAP70; conditions: at 1 µM
# T3 sequence (whole entry): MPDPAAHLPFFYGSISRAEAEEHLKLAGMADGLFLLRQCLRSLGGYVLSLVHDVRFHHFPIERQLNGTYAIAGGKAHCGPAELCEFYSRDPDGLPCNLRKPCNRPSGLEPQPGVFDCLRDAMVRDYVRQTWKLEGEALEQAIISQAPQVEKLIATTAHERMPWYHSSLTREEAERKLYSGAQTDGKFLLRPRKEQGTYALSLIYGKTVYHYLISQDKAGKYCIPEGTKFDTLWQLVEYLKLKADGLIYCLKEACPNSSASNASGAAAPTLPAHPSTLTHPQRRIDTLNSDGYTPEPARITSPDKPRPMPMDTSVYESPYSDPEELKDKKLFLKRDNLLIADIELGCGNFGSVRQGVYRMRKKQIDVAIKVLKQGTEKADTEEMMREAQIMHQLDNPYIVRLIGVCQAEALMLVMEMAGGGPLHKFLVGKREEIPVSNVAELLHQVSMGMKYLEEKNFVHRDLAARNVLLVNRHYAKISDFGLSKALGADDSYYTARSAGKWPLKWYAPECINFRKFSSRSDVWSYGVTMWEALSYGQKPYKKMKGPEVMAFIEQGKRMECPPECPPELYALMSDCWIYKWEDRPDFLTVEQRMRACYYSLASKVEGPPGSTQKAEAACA
# [8] = biological target: Protein kinase C beta type (Homo sapiens, UniProt P05771)
# [9] = biological target: Serine/threonine-protein kinase MRCK alpha (Homo sapiens) (UniProt Q5VT25); experiment: Selectivity interaction (KinomeScan (DiscoverX)) EUB0001619a CDC42BPA; conditions: at 1 µM
# [10] = biological target: T4, Dual specificity mitogen-activated protein kinase kinase 4 (Homo sapiens) (UniProt P45985); experiment: Selectivity interaction (ActivX KiNativ screen (ex vivo kinase selectivity in human PBMCs)) EUB0001619a MAP2K4; type: cell-based; conditions: PBMC, at 1 µM
# T4 sequence (whole entry): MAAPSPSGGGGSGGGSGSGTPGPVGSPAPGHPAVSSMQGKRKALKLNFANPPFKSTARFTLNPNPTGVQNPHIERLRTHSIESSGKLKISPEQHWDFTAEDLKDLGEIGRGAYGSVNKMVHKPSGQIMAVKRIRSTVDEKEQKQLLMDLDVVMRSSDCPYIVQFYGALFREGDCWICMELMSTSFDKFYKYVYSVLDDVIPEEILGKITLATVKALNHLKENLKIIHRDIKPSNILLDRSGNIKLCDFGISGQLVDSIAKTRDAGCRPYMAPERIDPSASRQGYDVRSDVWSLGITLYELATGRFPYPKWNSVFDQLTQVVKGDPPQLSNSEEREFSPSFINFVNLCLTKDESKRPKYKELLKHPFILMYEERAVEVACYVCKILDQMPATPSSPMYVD
# [11] = biological target: Ribosomal protein S6 kinase alpha-1 (Homo sapiens, UniProt Q15418); experiment: Selectivity interaction (KinomeScan (DiscoverX)) EUB0000695a RPS6KA1; conditions: at 100 nM
# [12] = biological target: Serine/threonine-protein kinase OSR1 (Homo sapiens) (UniProt O95747); experiment: Selectivity interaction (KinomeScan (DiscoverX)) EUB0000695a OXSR1; conditions: at 100 nM
# [13] = biological target: Calcium/calmodulin-dependent protein kinase type 1 (Homo sapiens) (UniProt Q14012); experiment: Selectivity interaction (Adapta Assay) EUB0001632a CAMK1; conditions: at 10 µM
# Calcium/calmodulin-dependent protein kinase type 1 (Homo sapiens), sequence (Q14012 whole entry, looked up): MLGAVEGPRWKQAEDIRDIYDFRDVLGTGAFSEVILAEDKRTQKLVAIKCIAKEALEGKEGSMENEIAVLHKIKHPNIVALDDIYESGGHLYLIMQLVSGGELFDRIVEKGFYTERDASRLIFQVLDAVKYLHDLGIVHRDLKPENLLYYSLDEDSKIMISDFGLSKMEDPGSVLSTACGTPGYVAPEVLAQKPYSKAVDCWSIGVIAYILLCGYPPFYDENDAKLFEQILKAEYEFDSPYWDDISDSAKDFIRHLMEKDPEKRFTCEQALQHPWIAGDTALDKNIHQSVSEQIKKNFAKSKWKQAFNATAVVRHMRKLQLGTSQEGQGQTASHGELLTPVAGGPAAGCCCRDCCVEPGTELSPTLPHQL
# Substance-K receptor (Homo sapiens), sequence (P21452 whole entry): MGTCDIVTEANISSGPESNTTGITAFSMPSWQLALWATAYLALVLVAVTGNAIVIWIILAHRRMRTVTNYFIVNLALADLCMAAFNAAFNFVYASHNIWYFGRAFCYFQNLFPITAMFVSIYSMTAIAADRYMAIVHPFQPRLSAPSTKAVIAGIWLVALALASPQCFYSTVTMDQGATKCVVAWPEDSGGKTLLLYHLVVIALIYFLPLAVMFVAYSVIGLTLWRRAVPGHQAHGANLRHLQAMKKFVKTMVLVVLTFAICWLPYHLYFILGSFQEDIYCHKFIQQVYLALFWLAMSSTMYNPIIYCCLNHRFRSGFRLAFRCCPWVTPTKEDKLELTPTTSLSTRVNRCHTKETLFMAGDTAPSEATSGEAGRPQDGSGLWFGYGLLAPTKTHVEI
# Serine/threonine-protein kinase 24 (Homo sapiens), sequence (Q9Y6E0 whole entry, looked up): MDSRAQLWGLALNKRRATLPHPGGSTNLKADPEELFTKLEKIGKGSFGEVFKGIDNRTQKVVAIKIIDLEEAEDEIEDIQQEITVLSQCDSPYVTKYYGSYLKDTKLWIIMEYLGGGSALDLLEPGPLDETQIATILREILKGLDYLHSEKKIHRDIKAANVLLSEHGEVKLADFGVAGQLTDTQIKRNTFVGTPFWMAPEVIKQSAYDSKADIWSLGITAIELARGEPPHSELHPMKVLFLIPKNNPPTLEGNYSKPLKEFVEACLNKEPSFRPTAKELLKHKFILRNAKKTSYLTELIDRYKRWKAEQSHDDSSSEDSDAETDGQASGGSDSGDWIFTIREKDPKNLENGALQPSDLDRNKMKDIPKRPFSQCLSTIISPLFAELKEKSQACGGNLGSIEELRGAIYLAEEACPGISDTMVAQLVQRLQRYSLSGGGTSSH
# Serine/threonine-protein kinase OSR1 (Homo sapiens), sequence (O95747 2-527 limits assumed): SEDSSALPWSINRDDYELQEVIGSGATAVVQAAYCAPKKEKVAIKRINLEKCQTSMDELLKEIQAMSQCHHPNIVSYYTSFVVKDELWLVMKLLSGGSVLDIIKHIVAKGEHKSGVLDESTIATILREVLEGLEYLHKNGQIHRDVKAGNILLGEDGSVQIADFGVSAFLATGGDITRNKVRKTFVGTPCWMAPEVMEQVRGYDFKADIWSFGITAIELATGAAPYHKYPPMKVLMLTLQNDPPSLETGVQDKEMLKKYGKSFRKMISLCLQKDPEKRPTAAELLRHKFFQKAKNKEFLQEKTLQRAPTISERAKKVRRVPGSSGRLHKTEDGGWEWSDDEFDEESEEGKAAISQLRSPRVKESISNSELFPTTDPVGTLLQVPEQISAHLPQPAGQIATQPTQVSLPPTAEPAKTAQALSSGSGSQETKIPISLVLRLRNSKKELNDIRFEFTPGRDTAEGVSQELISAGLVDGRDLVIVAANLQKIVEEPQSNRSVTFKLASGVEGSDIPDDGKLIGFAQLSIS
# Protein kinase C beta type, sequence (P05771 whole entry): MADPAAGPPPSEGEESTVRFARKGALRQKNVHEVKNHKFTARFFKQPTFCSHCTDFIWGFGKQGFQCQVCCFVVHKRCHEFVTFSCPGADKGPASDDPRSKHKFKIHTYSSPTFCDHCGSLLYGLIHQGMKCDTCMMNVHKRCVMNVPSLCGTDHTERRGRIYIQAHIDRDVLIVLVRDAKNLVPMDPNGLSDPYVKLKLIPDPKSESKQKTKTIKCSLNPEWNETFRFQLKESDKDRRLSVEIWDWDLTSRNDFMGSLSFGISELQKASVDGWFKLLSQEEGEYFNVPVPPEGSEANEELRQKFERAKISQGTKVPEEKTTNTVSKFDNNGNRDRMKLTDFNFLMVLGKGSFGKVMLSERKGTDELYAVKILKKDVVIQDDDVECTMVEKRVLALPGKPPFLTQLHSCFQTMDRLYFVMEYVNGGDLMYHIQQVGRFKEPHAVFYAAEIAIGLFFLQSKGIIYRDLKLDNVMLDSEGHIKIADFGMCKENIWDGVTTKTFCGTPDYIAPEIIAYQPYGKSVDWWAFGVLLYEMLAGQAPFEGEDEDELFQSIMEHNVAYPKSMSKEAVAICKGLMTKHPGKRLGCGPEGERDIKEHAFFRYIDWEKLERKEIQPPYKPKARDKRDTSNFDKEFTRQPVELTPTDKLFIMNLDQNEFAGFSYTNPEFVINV
# Ribosomal protein S6 kinase alpha-2 (Homo sapiens), sequence (Q15349 whole entry): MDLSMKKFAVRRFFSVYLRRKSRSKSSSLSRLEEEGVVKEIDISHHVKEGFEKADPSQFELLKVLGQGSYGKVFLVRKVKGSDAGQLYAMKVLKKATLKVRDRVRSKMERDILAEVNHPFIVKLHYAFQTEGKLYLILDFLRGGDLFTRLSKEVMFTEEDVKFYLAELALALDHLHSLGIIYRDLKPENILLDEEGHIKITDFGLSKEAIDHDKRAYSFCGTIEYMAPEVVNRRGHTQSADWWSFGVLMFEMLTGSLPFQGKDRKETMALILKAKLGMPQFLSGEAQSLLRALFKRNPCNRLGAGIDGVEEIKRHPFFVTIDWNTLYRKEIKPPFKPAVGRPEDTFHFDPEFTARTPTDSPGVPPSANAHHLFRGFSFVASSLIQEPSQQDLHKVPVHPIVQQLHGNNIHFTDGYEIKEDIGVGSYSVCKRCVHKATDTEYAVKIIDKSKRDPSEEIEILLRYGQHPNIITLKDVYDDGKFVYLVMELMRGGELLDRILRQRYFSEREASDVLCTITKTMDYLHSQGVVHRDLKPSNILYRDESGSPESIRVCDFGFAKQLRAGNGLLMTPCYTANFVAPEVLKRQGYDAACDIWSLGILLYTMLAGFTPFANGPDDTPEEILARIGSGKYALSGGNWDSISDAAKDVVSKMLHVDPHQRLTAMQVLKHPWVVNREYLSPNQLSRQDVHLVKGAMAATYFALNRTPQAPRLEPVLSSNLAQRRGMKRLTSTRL
# Ribosomal protein S6 kinase alpha-1, sequence (Q15418 whole entry): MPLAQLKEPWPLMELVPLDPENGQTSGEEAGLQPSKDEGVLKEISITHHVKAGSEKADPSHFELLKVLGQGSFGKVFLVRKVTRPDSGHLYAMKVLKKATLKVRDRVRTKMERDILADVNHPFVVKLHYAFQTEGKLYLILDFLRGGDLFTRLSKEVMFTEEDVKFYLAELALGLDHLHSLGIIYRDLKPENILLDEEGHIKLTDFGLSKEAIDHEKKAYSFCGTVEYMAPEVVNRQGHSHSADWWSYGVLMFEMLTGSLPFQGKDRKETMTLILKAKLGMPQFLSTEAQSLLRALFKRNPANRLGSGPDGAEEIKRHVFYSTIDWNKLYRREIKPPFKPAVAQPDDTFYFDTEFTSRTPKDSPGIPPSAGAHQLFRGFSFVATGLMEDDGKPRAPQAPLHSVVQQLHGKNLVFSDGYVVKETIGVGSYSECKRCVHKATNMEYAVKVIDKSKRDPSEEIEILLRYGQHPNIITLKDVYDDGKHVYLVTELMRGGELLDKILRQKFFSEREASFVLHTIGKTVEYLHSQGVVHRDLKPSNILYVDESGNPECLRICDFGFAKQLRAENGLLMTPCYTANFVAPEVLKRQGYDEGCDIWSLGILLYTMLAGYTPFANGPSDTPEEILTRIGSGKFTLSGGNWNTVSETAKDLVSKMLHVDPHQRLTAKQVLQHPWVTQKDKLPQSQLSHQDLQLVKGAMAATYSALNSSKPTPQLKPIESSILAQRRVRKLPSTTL
# Lethal(3)malignant brain tumor-like protein 1 (Homo sapiens), sequence (Q9Y468 whole entry): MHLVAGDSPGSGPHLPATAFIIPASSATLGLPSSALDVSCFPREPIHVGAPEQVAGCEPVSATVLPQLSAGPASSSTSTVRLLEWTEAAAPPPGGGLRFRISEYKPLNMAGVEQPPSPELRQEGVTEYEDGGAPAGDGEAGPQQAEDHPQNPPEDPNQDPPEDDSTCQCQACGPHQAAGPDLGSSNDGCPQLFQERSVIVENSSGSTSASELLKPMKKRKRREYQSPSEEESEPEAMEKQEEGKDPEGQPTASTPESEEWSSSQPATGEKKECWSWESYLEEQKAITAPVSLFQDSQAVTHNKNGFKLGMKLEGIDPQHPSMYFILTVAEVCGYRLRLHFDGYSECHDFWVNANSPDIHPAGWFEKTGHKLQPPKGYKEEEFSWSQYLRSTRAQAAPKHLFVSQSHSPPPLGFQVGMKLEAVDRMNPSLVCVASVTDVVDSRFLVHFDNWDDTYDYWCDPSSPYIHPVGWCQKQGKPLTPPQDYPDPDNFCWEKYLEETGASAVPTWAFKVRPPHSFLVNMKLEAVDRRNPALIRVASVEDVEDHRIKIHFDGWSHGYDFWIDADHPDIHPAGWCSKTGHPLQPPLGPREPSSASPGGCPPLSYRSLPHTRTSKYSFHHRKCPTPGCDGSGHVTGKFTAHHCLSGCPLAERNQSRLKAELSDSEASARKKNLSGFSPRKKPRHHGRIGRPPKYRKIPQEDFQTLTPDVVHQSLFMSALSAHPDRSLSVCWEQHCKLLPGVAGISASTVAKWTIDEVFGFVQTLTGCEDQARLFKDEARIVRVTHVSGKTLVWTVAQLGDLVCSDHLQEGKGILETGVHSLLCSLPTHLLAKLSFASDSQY
smiles,measurement,setting,value
CCc1ccccc1C(=O)Nc1n[nH]c2c(C)c(F)c(C3C(C#N)=C(C)N(C)C(C)=C3C#N)cc12 [BAY-3827],% of control,[1],0%
CC(=O)c1cc(-c2ccccc2OCC2CC2)c2ncccn12,% of control,[2],92%
C=CC(=O)Nc1ccc(C(=O)Nc2[nH]nc3c2CN(C(=O)N[C@H](CN(C)C)c2ccccc2)C3(C)C)cc1,% of engagement,[3],24%
CN(C(=O)c1cnn2cccnc12)c1cc2c(cc1N1CCOCC1)C(=O)N(C[C@@H](F)C(C)(C)O)C2,dTM,[4],0.7 K
Cc1cc(CN)cc(C)c1-c1ncn(C)c1-c1cncn1C,% activity,[5],> 90%
COCCN1CCC(c2cc(CN(C)C(=O)c3cccc(Oc4ccccc4)c3)ccn2)CC1,IC50,[6],> 0.003 µM
C=CC(=O)Nc1cc(-n2c(=O)ccc3cnc4ccc(-c5ccc(NS(C)(=O)=O)cc5)cc4c32)ccc1C,% of control,[7],91%
CCc1cccc(CC)c1NC(=O)c1nn(C)c2c1CCc1cnc(Nc3ccc(C(=O)NC4CCN(C)CC4)cc3OC(F)(F)F)nc1-2,IC50,[8],> 10 µM
N#Cc1cccc(-c2c[nH]c3ncnc(N4CCOCC4)c23)c1,% of control,[9],100%
same,% of inhibition,[10],19%
Cc1cc(F)c(C(=O)Nc2cccc(-c3nncn3C(C)C)n2)cc1-n1cnc(C2CC2)c1,% of control,[11],88%
same,% of control,[12],86%
Cn1cc(-n2cnc3c(NCc4nc5cc(Cl)c(Cl)cc5[nH]4)nc(N4CCOCC4)nc32)cn1,% of inhibition,[13],18.6%
